Results reported in ChEMBL document CHEMBL1201862, “PubChem BioAssay data set” (2004).
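Results reflect a 48-hour exposure of cells in 96-well plates to compound at five concentrations. The concentration for 50% growth inhibition is given as GI50.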 Active and inactive are the calls of the source. Cut-off read from the data, not from the text of the source: active = GI50 up to about 1.1 µM and inactive = higher.

What was measured:
Assay in all cases: NCI-60 cell line screen, 48 h
[1] = test system: 786-0
[2] = test system: SW-620
[3] = test system: UACC-257
[4] = test system: SR
[5] = test system: NCI-H460
[6] = test system: NCI-H522
[7] = test system: ACHN
[8] = test system: HCT-116
[9] = test system: COLO 205
[10] = test system: SK-MEL-28
[11] = test system: TK-10
[12] = test system: SF-295
[13] = test system: K562
[14] = test system: SK-MEL-5
[15] = test system: KM12
[16] = test system: NCI-H226
[17] = test system: DMS-114
[18] = test system: U-251
[19] = test system: CCRF-CEM
[20] = test system: SF-268
[21] = test system: SN12C
[22] = test system: A549
[23] = test system: M14
[24] = test system: MOLT-4
[25] = test system: HOP-62
[26] = test system: OVCAR-3
[27] = test system: SNB-19
[28] = test system: HL-60
[29] = test system: OVCAR-8
[30] = test system: HT-29
[31] = test system: SF-539
[32] = test system: LXFL 529
[33] = test system: UO-31
[34] = test system: RPMI-8226
[35] = test system: DMS-273
[36] = test system: HCC 2998
[37] = test system: M19-MEL
[38] = test system: LOX IMVI
[39] = test system: NCI-H23
[40] = test system: XF498
[41] = test system: Malme-3M
[42] = test system: EKVX
[43] = test system: KM-20L2
[44] = test system: HCT-15
[45] = test system: CAKI-1
[46] = test system: OVCAR-4
[47] = test system: A498
[48] = test system: SNB-75
[49] = test system: SK-MEL-2
[50] = test system: HOP-18
[51] = test system: DLD-1
[52] = test system: SNB-78
[53] = test system: HOP-92
[54] = test system: UACC-62
[55] = test system: RXF 393
[56] = test system: SK-OV-3
[57] = test system: OVCAR-5
[58] = test system: IGROV-1

Measured: GI50

CCOC(C[C@H](O[Si](C)(C)C(C)(C)C)[C@H]1COC(=S)S1)OCC
55.1 µM: [44]
inactive: [1] > 100 µM | [2] 62.7 µM | [3] 35 µM | [4] 41.7 µM | [5] 53.6 µM | [6] 23.3 µM | [7] 48.5 µM | [8] 39.2 µM | [9] 66.1 µM | [10] > 100 µM | [11] > 100 µM | [12] 37.7 µM | [13] 41.3 µM | [14] 48.1 µM | [15] 50.7 µM | [16] 85.1 µM | [17] 36.7 µM | [18] 40.7 µM | [19] 34.9 µM | [20] > 100 µM | [21] 55.8 µM | [22] 70.5 µM | [23] 52.1 µM | [24] 34.7 µM | [25] 43.6 µM | [26] 59.4 µM | [27] 28.8 µM | [28] 29 µM | [29] 66.5 µM | [30] 14.5 µM | [31] 33.6 µM | [32] 33.1 µM | [33] 35 µM | [34] 32.1 µM | [35] 30.1 µM | [36] > 100 µM | [37] 35.9 µM | [38] 52.6 µM | [39] 53.5 µM | [40] 27.2 µM | [41] > 100 µM | [42] > 100 µM | [43] 41.4 µM

C=C(c1ccccc1)C1(O)CCCCC1N (stereo unspecified)
> 100 µM: [44]
inactive: [1] > 100 µM | [2] > 100 µM | [3] > 100 µM | [4] 30.3 µM | [5] > 100 µM | [6] > 100 µM | [7] > 100 µM | [8] > 100 µM | [9] > 100 µM | [10] > 100 µM | [11] > 100 µM | [45] > 43.2 µM | [12] > 100 µM | [13] > 100 µM | [14] > 100 µM | [15] > 100 µM | [46] > 100 µM | [16] > 100 µM | [17] > 100 µM | [18] > 100 µM | [47] > 100 µM | [19] 33.9 µM | [48] > 85.7 µM | [20] > 100 µM | [49] > 100 µM | [50] > 100 µM | [21] > 100 µM | [22] > 100 µM | [23] > 100 µM | [24] 31.8 µM | [25] > 100 µM | [26] > 89.5 µM | [27] > 100 µM | [28] 16.6 µM | [51] > 100 µM | [29] > 100 µM | [30] > 100 µM | [31] > 100 µM | [32] > 100 µM | [33] > 100 µM | [34] 50.7 µM | [35] > 100 µM | [36] > 100 µM | [37] > 100 µM | [38] > 100 µM | [39] > 100 µM | [41] > 100 µM | [52] > 100 µM | [53] > 100 µM | [54] > 100 µM | [42] > 100 µM | [55] > 100 µM | [56] > 100 µM | [57] > 100 µM | [43] > 100 µM | [58] > 100 µM

c1nc2cscc2c2cscc12
inactive: [1] > 100 µM | [2] > 100 µM | [3] > 100 µM | [4] > 100 µM | [5] > 100 µM | [6] > 100 µM | [7] > 100 µM | [8] > 100 µM | [10] > 100 µM | [11] > 100 µM | [45] 42.8 µM | [12] > 100 µM | [13] > 100 µM | [15] > 100 µM | [46] > 100 µM | [16] 29.2 µM | [17] > 100 µM | [18] > 100 µM | [47] > 100 µM | [19] > 100 µM | [20] > 100 µM | [49] > 100 µM | [21] > 100 µM | [22] > 100 µM | [23] > 100 µM | [24] > 100 µM | [25] > 100 µM | [26] > 100 µM | [27] > 100 µM | [28] > 100 µM | [29] > 100 µM | [30] > 100 µM | [31] > 100 µM | [32] > 100 µM | [33] > 100 µM | [34] > 100 µM | [35] > 100 µM | [36] > 100 µM | [37] > 100 µM | [38] > 100 µM | [39] > 100 µM | [40] > 100 µM | [41] > 100 µM | [52] > 100 µM | [53] 14.7 µM | [54] > 100 µM | [55] > 100 µM | [56] 37 µM | [57] > 100 µM | [58] > 100 µM
> 100 µM: [44]

CC(C)(C)OC(=O)NCC(=O)OCc1ccccc1
inactive: [1] > 100 µM | [2] > 100 µM | [3] > 100 µM | [5] > 100 µM | [6] > 10 µM | [7] > 100 µM | [8] > 100 µM | [9] > 100 µM | [10] > 100 µM | [11] > 100 µM | [45] > 10 µM | [12] > 100 µM | [13] > 100 µM | [15] > 100 µM | [17] > 100 µM | [18] > 100 µM | [47] > 100 µM | [19] > 100 µM | [48] > 100 µM | [20] > 100 µM | [49] > 100 µM | [21] > 100 µM | [22] > 100 µM | [23] > 100 µM | [24] > 100 µM | [25] > 100 µM | [26] > 100 µM | [27] > 100 µM | [28] > 100 µM | [51] > 100 µM | [29] > 100 µM | [30] > 100 µM | [31] > 100 µM | [32] > 100 µM | [33] > 100 µM | [35] > 100 µM | [36] > 100 µM | [37] > 100 µM | [38] > 100 µM | [39] > 100 µM | [40] > 100 µM | [41] > 100 µM | [52] > 100 µM | [53] > 100 µM | [54] > 100 µM | [56] > 100 µM | [57] > 100 µM | [58] > 100 µM
> 100 µM: [44]
